Source: ChEMBL document CHEMBL1165874, “Carbonic anhydrase inhibitors: synthesis and inhibition of the human cytosolic isozymes I and II and transmembrane isozymes IX, XII (cancer-associated) and XIV with 4-substituted 3-pyridinesulfonamides” (Eur J Med Chem, 2010)

These compounds were tested against Carbonic anhydrase 14 (Homo sapiens, UniProt Q9ULX7).
Carbonic anhydrase 14, sequence (Q9ULX7 whole entry): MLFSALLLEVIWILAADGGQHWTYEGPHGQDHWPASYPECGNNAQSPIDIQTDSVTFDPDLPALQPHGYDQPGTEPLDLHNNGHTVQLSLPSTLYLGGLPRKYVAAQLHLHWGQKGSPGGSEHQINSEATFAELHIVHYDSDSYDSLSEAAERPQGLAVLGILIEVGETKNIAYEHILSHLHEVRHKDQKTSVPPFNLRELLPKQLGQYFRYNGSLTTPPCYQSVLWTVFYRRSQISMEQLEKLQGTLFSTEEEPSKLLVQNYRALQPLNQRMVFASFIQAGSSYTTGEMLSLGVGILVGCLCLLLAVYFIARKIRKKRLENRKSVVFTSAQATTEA

**Q.** With `NS(=O)(=O)c1ccc(S(=O)(=O)Nc2cccc3c(Cl)c[nH]c23)cc1` as the compound, how does the Ki read?
**A.** 104 nM

What follows are compounds tested against Carbonic anhydrase 9 (Homo sapiens, UniProt Q16790).

**Q.** `NS(=O)(=O)c1cnccc1Sc1nc2ccc([N+](=O)[O-])cc2s1` was tested. Which Ki did it give?
**A.** 9.6 nM

**Q.** With `C#CCSc1ccncc1S(N)(=O)=O` as the compound, how does the Ki read?
**A.** 6.3 nM

**Q.** How did the Ki turn out when `NS(=O)(=O)c1cnccc1Oc1ccc(F)cc1` was run?
**A.** 7.9 nM

**Q.** With `N#Cc1ccc(Oc2ccncc2S(N)(=O)=O)cc1` as the compound, how does the Ki read?
**A.** 7.2 nM

**Q.** How did the Ki turn out when `NS(=O)(=O)c1cnccc1Sc1nnns1` was run?
**A.** 7.7 nM

**Q.** With `CC1CC=NN1c1ccncc1S(N)(=O)=O` (configuration not stated) as the compound, how does the Ki read?
**A.** 7.8 nM
